One test deals with T1, human Nav1.7 (Homo sapiens, UniProt Q15858).
T1 construct: expressed in transfected cells
Put plainly: PatchXpress sodium current measurement, inactivated state block, Nav1.7. It counts as cell-based. To be noted: channels stably expressed in HEK 293 cells, double-pulse protocol, 22° C., read-out: potency for the Nav 1.7 sodium ion channel (1.7=). Summed up: (§1)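 HEK293 cells stably expressing channel; automated patch clamp at 22 °C, double-pulse protocol: hold 20 mV below V½ inactivation, 8000 ms prepulse 7 mV above V½, 2 ms step to −120 mV, 20 ms test pulse to −20 mV. CsF-based internal (pH 7.3), NMDG/40 mM NaCl external (pH 7.5). Rundown-corrected % inhibition (≥2 concentrations) fitted to Hill equation for IC50.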

The target of another test is T2, human Nav1.5 (Homo sapiens, UniProt Q14524).
T2 construct: expressed in transfected cells
T2 sequence (Q14524 whole entry): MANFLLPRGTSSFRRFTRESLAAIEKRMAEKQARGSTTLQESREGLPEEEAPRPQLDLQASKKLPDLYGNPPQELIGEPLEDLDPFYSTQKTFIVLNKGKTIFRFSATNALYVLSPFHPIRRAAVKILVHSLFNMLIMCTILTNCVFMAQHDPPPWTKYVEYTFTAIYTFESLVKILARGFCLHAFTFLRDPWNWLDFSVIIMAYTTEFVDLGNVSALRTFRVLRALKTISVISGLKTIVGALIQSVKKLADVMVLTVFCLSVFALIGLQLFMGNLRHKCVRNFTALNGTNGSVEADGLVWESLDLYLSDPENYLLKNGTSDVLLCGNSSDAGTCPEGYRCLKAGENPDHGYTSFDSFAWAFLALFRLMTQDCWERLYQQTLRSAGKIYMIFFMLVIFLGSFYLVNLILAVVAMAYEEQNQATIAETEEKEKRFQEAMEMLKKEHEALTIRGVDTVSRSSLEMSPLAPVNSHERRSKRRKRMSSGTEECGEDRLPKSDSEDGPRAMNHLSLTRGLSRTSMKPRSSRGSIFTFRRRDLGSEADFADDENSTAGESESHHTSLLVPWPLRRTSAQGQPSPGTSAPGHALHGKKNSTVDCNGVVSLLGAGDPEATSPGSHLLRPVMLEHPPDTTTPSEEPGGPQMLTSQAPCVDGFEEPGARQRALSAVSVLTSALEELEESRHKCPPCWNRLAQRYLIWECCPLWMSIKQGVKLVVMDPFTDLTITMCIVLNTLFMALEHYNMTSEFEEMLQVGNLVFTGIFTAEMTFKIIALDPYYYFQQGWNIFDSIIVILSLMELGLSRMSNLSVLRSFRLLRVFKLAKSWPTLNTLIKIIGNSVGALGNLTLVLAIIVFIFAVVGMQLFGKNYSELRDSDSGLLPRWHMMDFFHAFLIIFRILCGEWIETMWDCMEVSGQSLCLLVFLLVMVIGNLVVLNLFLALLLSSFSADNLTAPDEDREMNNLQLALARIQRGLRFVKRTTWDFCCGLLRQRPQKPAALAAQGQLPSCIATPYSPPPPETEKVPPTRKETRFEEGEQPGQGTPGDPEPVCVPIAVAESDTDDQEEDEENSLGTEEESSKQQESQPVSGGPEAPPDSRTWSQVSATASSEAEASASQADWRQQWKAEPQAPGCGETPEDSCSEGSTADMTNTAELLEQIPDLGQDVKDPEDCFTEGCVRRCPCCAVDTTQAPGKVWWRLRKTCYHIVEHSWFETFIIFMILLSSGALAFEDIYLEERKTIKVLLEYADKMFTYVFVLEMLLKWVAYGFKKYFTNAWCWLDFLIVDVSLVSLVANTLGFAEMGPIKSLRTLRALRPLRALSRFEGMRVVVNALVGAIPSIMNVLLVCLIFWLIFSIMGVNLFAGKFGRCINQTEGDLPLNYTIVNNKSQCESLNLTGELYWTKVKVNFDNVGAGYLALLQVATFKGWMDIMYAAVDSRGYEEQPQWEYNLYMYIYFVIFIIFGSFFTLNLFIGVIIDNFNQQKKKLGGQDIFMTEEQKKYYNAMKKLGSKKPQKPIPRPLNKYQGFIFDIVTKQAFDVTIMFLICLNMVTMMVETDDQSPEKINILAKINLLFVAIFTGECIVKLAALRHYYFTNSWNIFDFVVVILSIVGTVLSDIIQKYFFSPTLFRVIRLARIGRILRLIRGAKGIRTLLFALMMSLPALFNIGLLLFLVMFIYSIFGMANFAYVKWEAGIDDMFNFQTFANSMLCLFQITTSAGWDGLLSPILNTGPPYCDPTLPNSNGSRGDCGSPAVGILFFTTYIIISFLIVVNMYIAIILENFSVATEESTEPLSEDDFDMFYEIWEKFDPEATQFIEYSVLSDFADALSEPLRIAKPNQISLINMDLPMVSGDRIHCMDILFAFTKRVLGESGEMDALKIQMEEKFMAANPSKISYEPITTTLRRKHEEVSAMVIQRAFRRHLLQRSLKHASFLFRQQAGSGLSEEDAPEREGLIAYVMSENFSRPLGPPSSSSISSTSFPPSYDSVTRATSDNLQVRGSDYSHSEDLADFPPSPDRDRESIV
Put plainly: PatchXpress sodium current measurement, inactivated state block, Nav1.5. It counts as cell-based. To be noted: determined by PatchXpress measurement, HEK 293 cells. Summed up:
as §1

T1 sequence (Q15858 whole entry): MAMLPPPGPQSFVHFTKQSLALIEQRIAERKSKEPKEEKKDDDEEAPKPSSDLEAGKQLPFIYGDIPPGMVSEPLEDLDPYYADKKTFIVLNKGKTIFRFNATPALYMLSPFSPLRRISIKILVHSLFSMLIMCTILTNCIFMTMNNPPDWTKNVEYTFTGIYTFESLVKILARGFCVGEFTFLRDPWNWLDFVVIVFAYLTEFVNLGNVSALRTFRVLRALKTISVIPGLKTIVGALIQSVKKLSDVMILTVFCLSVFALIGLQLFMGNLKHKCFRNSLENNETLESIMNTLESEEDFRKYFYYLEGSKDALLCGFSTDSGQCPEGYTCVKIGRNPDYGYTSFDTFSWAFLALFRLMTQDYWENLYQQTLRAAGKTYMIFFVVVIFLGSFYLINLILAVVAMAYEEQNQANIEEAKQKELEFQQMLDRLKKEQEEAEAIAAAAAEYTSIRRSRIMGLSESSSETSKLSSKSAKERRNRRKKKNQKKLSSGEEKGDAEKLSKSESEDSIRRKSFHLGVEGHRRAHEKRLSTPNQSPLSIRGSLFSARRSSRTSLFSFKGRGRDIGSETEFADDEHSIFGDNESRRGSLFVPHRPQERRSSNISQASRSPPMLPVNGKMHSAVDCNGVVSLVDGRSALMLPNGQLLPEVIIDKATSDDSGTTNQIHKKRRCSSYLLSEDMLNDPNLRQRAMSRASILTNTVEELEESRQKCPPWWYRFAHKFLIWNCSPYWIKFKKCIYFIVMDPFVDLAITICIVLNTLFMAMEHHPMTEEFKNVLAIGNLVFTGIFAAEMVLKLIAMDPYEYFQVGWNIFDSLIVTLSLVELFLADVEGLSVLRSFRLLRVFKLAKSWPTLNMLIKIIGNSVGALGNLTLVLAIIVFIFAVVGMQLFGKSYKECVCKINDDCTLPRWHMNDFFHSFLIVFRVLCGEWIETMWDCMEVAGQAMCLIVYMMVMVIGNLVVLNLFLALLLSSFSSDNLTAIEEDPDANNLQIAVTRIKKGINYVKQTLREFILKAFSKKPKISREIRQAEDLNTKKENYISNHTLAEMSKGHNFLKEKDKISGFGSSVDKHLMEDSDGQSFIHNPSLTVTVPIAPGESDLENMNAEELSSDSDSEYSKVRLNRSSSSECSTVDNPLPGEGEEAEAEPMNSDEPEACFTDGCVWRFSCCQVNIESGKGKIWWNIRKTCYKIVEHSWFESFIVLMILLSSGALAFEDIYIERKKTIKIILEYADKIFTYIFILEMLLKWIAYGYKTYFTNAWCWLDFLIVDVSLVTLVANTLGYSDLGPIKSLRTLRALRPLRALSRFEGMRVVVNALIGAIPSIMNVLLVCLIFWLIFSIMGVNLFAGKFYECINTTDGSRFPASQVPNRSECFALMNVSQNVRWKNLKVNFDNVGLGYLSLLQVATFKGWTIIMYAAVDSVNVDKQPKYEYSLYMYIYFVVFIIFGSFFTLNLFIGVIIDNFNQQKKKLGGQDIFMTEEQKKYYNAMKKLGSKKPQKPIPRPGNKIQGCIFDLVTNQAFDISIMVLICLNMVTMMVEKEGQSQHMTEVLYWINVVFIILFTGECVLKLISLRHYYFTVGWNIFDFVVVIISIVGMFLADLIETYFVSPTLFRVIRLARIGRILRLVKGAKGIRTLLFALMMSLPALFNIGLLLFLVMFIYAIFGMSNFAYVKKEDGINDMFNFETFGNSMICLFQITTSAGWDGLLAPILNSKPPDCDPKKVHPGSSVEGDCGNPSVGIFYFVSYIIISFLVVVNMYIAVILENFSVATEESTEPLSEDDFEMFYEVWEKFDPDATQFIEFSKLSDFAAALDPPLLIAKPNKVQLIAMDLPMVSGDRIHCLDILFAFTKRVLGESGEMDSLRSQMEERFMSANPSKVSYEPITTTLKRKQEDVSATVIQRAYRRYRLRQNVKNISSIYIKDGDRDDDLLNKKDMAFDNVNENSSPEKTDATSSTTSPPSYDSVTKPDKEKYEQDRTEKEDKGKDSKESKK

As to `C[C@H](c1cccc(CN)c1)n1c(=O)oc2cc(S(=O)(=O)Nc3cccc(F)n3)c(F)cc21` [Ex19-5, 3-{(1R)-1-[3-(aminomethyl)phenyl]ethyl}-5-fluoro-N-(6-fluoropyridin-2-yl)-2-oxo-2,3-dihydro-1,3-benzoxazole-6-sulfonamide], the IC50 on human Nav1.7 worked out at 0.482 µM. Moreover, at human Nav1.5, the “ratio of Nav 1.5:Nav 1.7 potency” value is 96.
For `Cc1cc2c(cc1S(=O)(=O)Nc1cccc(F)n1)oc(=O)n2[C@H](C)c1cccc(Br)c1C` [Ex18-7, 3-[(1R)-1-(3-bromo-2-methylphenyl)ethyl]-N-(6-fluoropyridin-2-yl)-5-methyl-2-oxo-2,3-dihydro-1,3-benzoxazole-6-sulfonamide], on human Nav1.7, the IC50 is 0.069 µM. For the same molecule, the “ratio of Nav 1.5:Nav 1.7 potency” value at human Nav1.5 worked out at 90.
For `C[C@H](c1ccccc1CN1CCCCC1)n1c(=O)oc2cc(S(=O)(=O)Nc3cccc(F)n3)c(F)cc21` [Ex9-3, 5-fluoro-N-(6-fluoropyridin-2-yl)-2-oxo-3-{(1R)-1-[2-(piperidin-1-ylmethyl)phenyl]ethyl}-2,3-dihydro-1,3-benzoxazole-6-sulfonamide] the same measures were 0.3 µM and 68.
For `C[C@H](c1cccc(CCCN2CCC2)c1)n1c(=O)oc2cc(S(=O)(=O)Nc3cccc(F)n3)c(F)cc21` [Ex22-4, 3-[(1R)-1-{3-[3-(azetidin-1-yl)propyl]phenyl}ethyl]-5-fluoro-N-(6-fluoro-pyridin-2-yl)-2-oxo-2,3-dihydro-1,3-benzoxazole-6-sulfonamide] the same measures were 0.169 µM and 178.
With `CC(N)C#Cc1cccc([C@@H](C)n2c(=O)oc3cc(S(=O)(=O)Nc4cccc(F)n4)c(F)cc32)c1` (stereo partly drawn) [Ex21-5, 3-{(1R)-1-[3-(3-aminobut-1-yn-1-yl)phenyl]ethyl}-5-fluoro-N-(6-fluoropyridin-2-yl)-2-oxo-2,3-dihydro-1,3-benzoxazole-6-sulfonamide], the IC50 at human Nav1.7 is 0.885 µM. For the same molecule, the “ratio of Nav 1.5:Nav 1.7 potency” value on human Nav1.5 was determined as 34.
As to `Cc1cc2c(cc1S(=O)(=O)Nc1cccc(F)n1)oc(=O)n2[C@H](C)c1cccc2c1CNCC2` [Ex17-4, (R)—N-(6-Fluoropyridin-2-yl)-5-methyl-2-oxo-3-(1-(1,2,3,4-tetrahydroisoquinolin-8-yl)ethyl)-2,3-dihydrobenzo[d]oxazole-6-sulfonamide], the IC50 at human Nav1.7 stood at 0.034 µM. In addition, the “ratio of Nav 1.5:Nav 1.7 potency” value on human Nav1.5 is 200.
On to `CCN(CC)CC#Cc1cccc([C@@H](C)n2c(=O)oc3cc(S(=O)(=O)Nc4cccc(F)n4)c(F)cc32)c1` [Ex21-15, 3-[(1R)-1-{3-[3-(diethylamino)prop-1-yn-1-yl]phenyl}ethyl]-5-fluoro-N-(6-fluoropyridin-2-yl)-2-oxo-2,3-dihydro-1,3-benzoxazole-6-sulfonamide], for which the IC50 at human Nav1.7 turned out to be 0.516 µM. On human Nav1.5, the “ratio of Nav 1.5:Nav 1.7 potency” value came to 58.
`Cc1c(CCCN)cccc1[C@@H](C)n1c(=O)oc2cc(S(=O)(=O)Nc3cccc(F)n3)c(F)cc21` [Ex22-3, 3-{(1R)-1-[3-(3-amino-propyl)-2-methylphenyl]ethyl}-5-fluoro-N-(6-fluoropyridin-2-yl)-2-oxo-2,3-dihydro-1,3-benzoxazole-6-sulfonamide]: the IC50 on human Nav1.7 is 0.101 µM. Also, at human Nav1.5, the “ratio of Nav 1.5:Nav 1.7 potency” value is listed as 297.
For `O=c1oc2cc(S(=O)(=O)Nc3cccc(F)n3)c(F)cc2n1Cc1cccc2c1CNCC2F` (single isomer, unassigned; enantiomer 2) [Ex5-11, (S or R)-5-fluoro-N-(6-fluoropyridin-2-yl)-3-[(4-fluoro-1,2,3,4-tetrahydroisoquinolin-8-yl)methyl]-2-oxo-2,3-dihydro-1,3-benzoxazole-6-sulfonamide (enantiomer 2)] the same measures were 0.727 µM and 54.
`O=c1oc2cc(S(=O)(=O)Nc3cccc(F)n3)c(F)cc2n1C1CCCc2ccc(F)cc21` (stereo not shown) [Ex4-5, 5-fluoro-N-(6-fluoropyridin-2-yl)-3-(7-fluoro-1,2,3,4-tetrahydronaphthalen-1-yl)-2-oxo-2,3-dlihydro-1,3-benzoxazole-6-sulfonamide]: the IC50 on human Nav1.7 amounted to 0.65 µM. At human Nav1.5, the “ratio of Nav 1.5:Nav 1.7 potency” value turned out to be 101.
With `Cc1cc2c(cc1S(=O)(=O)Nc1cccc(F)n1)oc(=O)n2[C@H](C)c1cccc(C)c1C#C[C@H]1CCCC[C@H]1N` [Ex21-26, 3-[(1R)-1-(2-{[(1R,2R)-2-aminocyclohexyl]-ethynyl}-3-methylphenyl)ethyl]-N-(6-fluoropyridin-2-yl)-5-methyl-2-oxo-2,3-dihydro-1,3-benzoxazole-6-sulfonamide], the IC50 on human Nav1.7 is 0.016 µM. For the same molecule, the “ratio of Nav 1.5:Nav 1.7 potency” value on human Nav1.5 is 192.
The matching figures for `C[C@H](c1cccc2c1CNCC2)n1c(=O)oc2cc(S(=O)(=O)Nc3cccc(F)n3)ccc21.Cl` [Ex2-5, (R)—N-(6-fluoropyridin-2-yl)-2-oxo-3-(1-(1,2,3,4-tetrahydroisoquinolin-8-yl)ethyl)-2,3-dihydrobenzo[d]oxazole-6-sulfonamide hydrochloride]: 0.152 µM and 316.
With `Cc1c(C#CCN)cccc1[C@@H](C)n1c(=O)oc2cc(S(=O)(=O)Nc3cccc(F)n3)c(F)cc21` [Ex21-22, 3-{(1R)-1-[3-(3-aminoprop-1-yn-1-yl)-2-methylphenyl]ethyl}-5-fluoro-N-(6-fluoropyridin-2-yl)-2-oxo-2,3-dihydro-1,3-benzoxazole-6-sulfonamide], on human Nav1.7, the IC50 worked out at 0.136 µM. Further, the “ratio of Nav 1.5:Nav 1.7 potency” value on human Nav1.5 amounted to 220.
The matching figures for `Cc1cc2c(cc1S(=O)(=O)Nc1cccc(F)n1)oc(=O)n2[C@H](C)c1ccccc1C1CCNCC1` [Ex18-3, (R)—N-(6-Fluoropyridin-2-yl)-5-methyl-2-oxo-3-(1-(2-(piperidin-4-yl)phenyl)ethyl)-2,3-dihydrobenzo[d]oxazole-6-sulfonamide]: 0.013 µM and 233.
The matching figures for `C[C@H](c1ccccc1C#CCN(C)C)n1c(=O)oc2cc(S(=O)(=O)Nc3cccc(F)n3)c(F)cc21` [Ex8-9, 3-[(1R)-1-{2-[3-(dimethylamino)prop-1-yn-1-yl]phenyl}ethyl]-5-fluoro-N-(6-fluoropyridin-2-yl)-2-oxo-2,3-dihydro-1,3-benzoxazole-6-sulfonamide]: 0.273 µM and 99.
For `Cc1cc2c(cc1S(=O)(=O)Nc1cccc(F)n1)oc(=O)n2[C@H](C)c1ccccc1CN` [Ex17-7, 3-{(1R)-1-[2-(aminomethyl)phenyl]ethyl}-N-(6-fluoropyridin-2-yl)-5-methyl-2-oxo-2,3-dihydro-1,3-benzoxazole-6-sulfonamide] the same measures were 0.049 µM and 147.
On to `C[C@H](c1cccc(C#CC2(N)CCCCC2)c1)n1c(=O)oc2cc(S(=O)(=O)Nc3cccc(F)n3)c(F)cc21` [Ex21-4, 3-[(1R)-1-{3-[(1-aminocyclohexyl)-ethynyl]phenyl}ethyl]-5-fluoro-N-(6-fluoropyridin-2-yl)-2-oxo-2,3-dihydro-1,3-benzoxazole-6-sulfonamide], for which the IC50 on human Nav1.7 stood at 0.226 µM. Moreover, the “ratio of Nav 1.5:Nav 1.7 potency” value on human Nav1.5 amounted to 45.
The matching figures for `C[C@H](c1ccccc1C1(F)CNC1)n1c(=O)oc2cc(S(=O)(=O)Nc3cccc(F)n3)c(F)cc21` [Ex12-6, (R)-5-Fluoro-3-(1-(2-(3-fluoroazetidin-3-yl)phenyl)ethyl)-N-(6-fluoropyridin-2-yl)-2-oxo-2,3-dihydrobenzo[d]oxazole-6-sulfonamide]: 0.046 µM and 648.
On to `C[C@H](c1cccc(C2CCCN2)c1)n1c(=O)oc2cc(S(=O)(=O)Nc3cccc(F)n3)c(F)cc21` (stereo partly drawn) [Ex20-3, 5-fluoro-N-(6-fluoropyridin-2-yl)-2-oxo-3-{(1R)-1-[3-(pyrrolidin-2-yl)phenyl]ethyl}-2,3-dihydro-1,3-benzoxazole-6-sulfonamide], for which the IC50 on human Nav1.7 came to 0.243 µM. For the same molecule, the “ratio of Nav 1.5:Nav 1.7 potency” value at human Nav1.5 worked out at 218.
In the case of `C[C@H](c1ccccc1C1(O)CNC1)n1c(=O)oc2cc(S(=O)(=O)Nc3cccc(F)n3)c(F)cc21` [Ex12-4, (R)-5-Fluoro-N-(6-fluoropyridin-2-yl)-3-(1-(2-(3-hydroxyazetidin-3-yl)phenyl)ethyl)-2-oxo-2,3-dihydrobenzo[d]oxazole-6-sulfonamide], the IC50 on human Nav1.7 was found to be 0.4 µM. Besides, the “ratio of Nav 1.5:Nav 1.7 potency” value on human Nav1.5 is on record as 75.
For `C[C@H](c1ccccc1C#CCC(C)(C)N)n1c(=O)oc2cc(S(=O)(=O)Nc3cccc(F)n3)c(F)cc21` [Ex8-7, 3-{(1R)-1-[2-(4-amino-4-methylpent-1-yn-1-yl)phenyl]ethyl}-5-fluoro-N-(6-fluoropyridin-2-yl)-2-oxo-2,3-dihydro-1,3-benzoxazole-6-sulfonamide] the same measures were 0.108 µM and above 131.
For `C[C@H](c1cccc(C#CCN(C)C)c1)n1c(=O)oc2cc(S(=O)(=O)Nc3cccc(F)n3)c(F)cc21` [Ex21-3, 3-[(1R)-1-{3-[3-(dimethylamino)prop-1-yn-1-yl]phenyl}ethyl]-5-fluoro-N-(6-fluoropyridin-2-yl)-2-oxo-2,3-dihydro-1,3-benzoxazole-6-sulfonamide] the same measures were 0.808 µM and 37.
As to `Cc1cc2c(cc1S(=O)(=O)Nc1cccc(F)n1)oc(=O)n2[C@H](C)c1cccc(C)c1CN` [Ex19-2, 3-{(1R)-1-[2-(aminomethyl)-3-methylphenyl]ethyl}-N-(6-fluoropyridin-2-yl)-5-methyl-2-oxo-2,3-dihydro-1,3-benzoxazole-6-sulfonamide], at human Nav1.7, the IC50 came to 0.014 µM. The “ratio of Nav 1.5:Nav 1.7 potency” value at human Nav1.5 worked out at 133.

The values above are taken from patent US9624208B2, “Benzoxazolinone compounds with selective activity in voltage-gated sodium channels” (Merck Sharp & Dohme Corp., priority 2012, dated 2017).
